Test results: US20230287051A1, “INHIBITORS OF COMPLEMENT FACTOR C3 AND THEIR MEDICAL USES” (ZP SPV 3 K/S, priority 2020, published 2023)
Numbered stars: 1 amine (or outer) side, 2 acyl side, 3 side chain; on linkers, the order of the positions; unused ones are H or OH. Bridge positions count the residues as written; N and C are the ends. Square brackets hold non-standard residues; d marks the D form. Side chains are listed from the residue outwards. Peptide text beside a SMILES is read from it. * marks the point of attachment. Trp(1-Me) = Cn1cc(C[C@H](N)C(=O)O)c2ccccc21; C18 diacid = O=C(O)CCCCCCCCCCCCCCCCC(=O)*; γGlu = O=C(O)[C@H](CCC(=O)[*:2])N[*:1]; AEEA = NCCOCCOCC(=O)O; CH2 = C([*:1])[*:2]; Sar = CNCC(=O)O

Legend:
[1] = system: classical complement pathway; experiment: In vitro haemolysis assay (inhibition of classical complement pathway); type: cell-based; conditions: human serum, sensitized sheep RBC, 30 minutes at 37° C., absorbance at 405 nm, n=>2; read-out: IC50, inhibition of hemolysis
Method in brief: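 Compounds in 9-point serial dilution in Tris/casein buffer pH 7.4 (Ca2+/Mg2+) preincubated 15 min at room temperature with diluted human serum (dilution giving 70-90% maximal haemolysis), then antibody-sensitized sheep RBCs added, 30 min at 37° C. EDTA stop; supernatant haemoglobin read at 405 nm. IC50 from 4PL fit, normalized to controls, n≥2.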

Human C3 = target: T1, Human C3 (Homo sapiens, UniProt P01024); experiment: Affinity measurement by surface plasmon resonance with immobilized C3; conditions: SPR, immobilized human C3, 25° C., 1:1 Langmuir binding model, n=>2
T1 construct: purchased Complement tech A113c
Method: Surface plasmon resonance (SPR) was used to characterize peptides with respect to their binding affinity (Kd) for C3.
For interaction experiments, a multi-cycle experiment approach was used and performed using a BiacoreX100™ instrument (GE Healthcare) at 25° C. Peptides were injected in increasing concentration series (5 different concentrations and buffer reference) for 180 seconds at a flow rate of 30 μL/min in a buffer consisting of 50 mM Tris buffer at pH 7.4, with 150 mM NaCl and 0.05% Tween20. This was followed by a dissociation period for 10 min. The C3 surface was regenerated between runs by two consecutive injections of 3 M MgCl2 each for 45 seconds.
Sensorgrams were double-referenced (reference surface, blanks) prior to analysis of the kinetic profiles by globally fitting data to a 1:1 Langmuir binding model to obtain association and dissociation rates for calculation of the equilibrium dissociation constant Kd (Table 3). Each peptide was tested at in at least 2 independent experiments.

Kd (Human C3)	Structure (SMILES)	IC50 [1]
19 nM	CC[C@H](C)[C@@H]1NC(=O)[C@@H](NC(=O)[C@H](Cc2ccccc2)NC(=O)[C@H](CCC(=O)O)NC(=O)[C@H](CO)NC(=O)CNC(=O)[C@H](CCC(=O)O)NC(C)=O)CSCSC[C@@H](C(=O)N[C@H](C(=O)N[C@@H](CCC(=O)O)C(=O)NCC(=O)N[C@@H](CCC(=O)O)C(=O)NCCOCCOCC(=O)N[C@@H](CCC(=O)O)C(=O)N[C@@H](CO)C(=O)N[C@@H](CCCCNC(=O)CC[C@H](NC(=O)CCCCCCCCCCCCCCCCC(=O)O)C(=O)O)C(N)=O)[C@@H](C)O)NC(=O)[C@H](CCCNC(=N)N)NC(=O)[C@H](Cc2c[nH]cn2)NC(=O)[C@H](CCC(=O)O)NC(=O)CN(C)C(=O)[C@H](Cc2c[nH]c3ccccc23)NC(=O)[C@H](CC(=O)O)NC(=O)[C@H](CCC(N)=O)NC(=O)[C@H](Cc2cn(C)c3ccccc23)NC1=O [Compound 20, Ac-EGSEF[C(1)]I[1-Me-Trp]QDW[Sar]EHR[C(1)]TEGE[Peg3]ES-K([17-Carboxy-heptadecanoyl][yGlu])-NH2] (Ac-EGSEFCI[Trp(1-Me)]QDW[Sar]EHRCTEGE[AEEA]ESK([γGlu-C18 diacid])-NH2; linker 6-16 via CH2)	< 250 nM
15 nM	CC[C@H](C)[C@@H]1NC(=O)[C@@H](NC(=O)[C@H](Cc2ccccc2)NC(=O)[C@@H](NC(=O)CNC(=O)[C@H](CO)NC(=O)[C@@H](N)CCC(=O)O)C(C)C)CSCSC[C@@H](C(=O)N[C@H](C(=O)N[C@@H](CCC(=O)O)C(=O)NCC(=O)N[C@@H](CCC(=O)O)C(=O)NCCOCCOCC(=O)NCCOCCOCC(=O)N[C@@H](CCCCNC(=O)CC[C@H](NC(=O)CNC(=O)CC[C@H](NC(=O)CCCCCCCCCCCCCCCCC(=O)O)C(=O)O)C(=O)O)C(N)=O)[C@@H](C)O)NC(=O)[C@H](CCCNC(=N)N)NC(=O)[C@H](Cc2c[nH]cn2)NC(=O)[C@H](CCC(=O)O)NC(=O)CN(C)C(=O)[C@H](Cc2c[nH]c3ccccc23)NC(=O)[C@H](CC(=O)O)NC(=O)[C@H](CCC(N)=O)NC(=O)[C@H](Cc2cn(C)c3ccccc23)NC1=O [Compound 29, H-ESGVF[C(1)]I[1-Me-Trp]QDW[Sar]EHR[C(1)]TEGE[Peg3][Peg3]-K([17-Carboxy-heptadecanoyl][yGlu]G[yGlu])-NH2] (H-ESGVFCI[Trp(1-Me)]QDW[Sar]EHRCTEGE[AEEA][AEEA]K([γGlu-Gly-γGlu-C18 diacid])-NH2; linker 6-16 via CH2)	< 100 nM
